Columns and labels:
TSLP = assay: Inhibitory effect on cytokine expression (RT-PCR, TNF alpha-induced HaCaT cells): TSLP; format: cell-based, human; settings: TNFα 50 ng/ml, extract 1 μg/ml, Dex 200 nM, non-induced = 1
Protocol: (§1) In order to determine the anti-inflammatory activity of inventive extract, following inhibition test of cytokine expression using HaCaT cell was performed according to the procedure disclosed in the literature (Jeong et al., 2019, J. Invest. Dermatol., May; 139 (5): pp1098-1109). ?
(§2) HaCaT cell (human epithelial keratinocyte cell, 300493, CLS) was inoculated into DMEM medium containing 10% Fetal bovine serum, 100 units/ml of penicillin, 100 μg/ml of streptomycin (D6429, Sigma-Aldrich Co. Ltd) and was incubated in the incubator (HERA cell 150i, Thermo Fisher Scientific Co. Ltd.) maintaining optimum humidity (85-95%) and 5% CO2 atmosphere.
(§3) For performing gene expression test, the incubated cells were transferred to 12 wells and 50 ng/ml of TNF alpha (RC214-12, Biobasic Co. Ltd) was treated therewith for 1 hour to induce inflammatory response.
(§4) 1 hour after inducing the inflammation, 1 μg/ml of inventive extract prepared in Examples was treated with identical medium and subjected to incubation for 1 hour. After the incubation, RNA (FATRR-001, Favorgen) was extracted from the cell and cDNA was synthesized from the RNA using by cDNA synthesis kit (RRO36A, TAKARA). […]

IL-1β = assay: Inhibitory effect on cytokine expression (RT-PCR, TNF alpha-induced HaCaT cells): IL-1β; format: cell-based, human; settings: TNFα 50 ng/ml, extract 1 μg/ml, Dex 200 nM, non-induced = 1
Protocol: as §1, §2, §3, §4

**Q.** How did the “TSLP expression (quantitative RT-PCR)” value (TSLP) turn out when `C[C@@H]1C[C@H]2[C@@H]3CCC4=CC(=O)C=C[C@]4(C)[C@@]3(F)[C@@H](O)C[C@]2(C)[C@@]1(O)C(=O)CO` [Dex, Dexamethasone] was run?
**A.** 52.49

**Q.** And the “IL-1β expression (quantitative RT-PCR)” value (IL-1β)?
**A.** 1.081
